Measured values as given in patent EP0238178B1, “Novel derivatives of erythromycylamine” (ELI LILLY AND COMPANY, priority 1986, dated 1987).
Values after ≈ are worked out from the molar mass of the structure shown. Like-named read-outs stand apart in the source and are kept apart here.

Key:
[1] = system: Staphylococcus aureus X1.1; test: MIC, standard agar-dilution assay; type: cell-based
[2] = system: Staphylococcus aureus V41; test: MIC, standard agar-dilution assay; type: cell-based; settings: Staphylococcus aureus V41, Penicillin-resistant strain, inducibly-resistant to erythromycin
From the text: (§1) In addition to excellent in vitro activity against erythromycin-sensitive bacteria, several members of this new series have shown in vitro activity against erythromycin-resistant strains. These include strains which are inducibly-resistant to erythromycin (S.. aureus V41 and X400 and S. epidermidis EPI1) and even strains which are constitutively-resistant (S. epidermidis 270).

[3] = system: Staphylococcus aureus X400; test: MIC, standard agar-dilution assay; type: cell-based; settings: Staphylococcus aureus X400, Methicillin-resistant strain, inducibly-resistant to erythromycin
From the text: as §1

[4] = system: Staphylococcus aureus S13E; test: MIC, standard agar-dilution assay; type: cell-based
[5] = system: Staphylococcus epidermidis 222; test: MIC, standard agar-dilution assay; type: cell-based
[6] = system: Streptococcus pyogenes C203; test: MIC, standard agar-dilution assay; type: cell-based
[7] = system: Streptococcus sp. group D X66; test: MIC, standard agar-dilution assay; type: cell-based
[8] = system: Streptococcus sp. group D 2041; test: MIC, standard agar-dilution assay; type: cell-based
[9] = system: Haemophilus influenzae C.L.; test: MIC, standard agar-dilution assay; type: cell-based; settings: Ampicillin-sensitive strain
[10] = system: Haemophilus influenzae 76; test: MIC, standard agar-dilution assay; type: cell-based; settings: Haemophilus influenzae 76, Ampicillin-resistant strain
[11] = system: Escherichia coli EC14; test: MIC, standard agar-dilution assay; type: cell-based
[12] = system: Streptococcus pneumoniae Park I; test: MIC, standard agar-dilution assay; type: cell-based
[13] = system: Staphylococcus aureus; test: Experimental bacterial infection in mice, ED50; type: in vivo; settings: Staphylococcus aureus, po, two doses, dose protecting 50% of animals, read-out: Oral ED50
Protocol: (§2) The new derivatives of this invention have also shown in vivo antimicrobial activity against experimental bacterial infections. When two doses of test compound were administered to mice in experimental infections, the activity observed was measured as an EDso value [effective dose in mg/kg to protect 50% of the test animals: see Warren Wick, et al., J. Bacteriol. 81, 233-235 (1961)].

[14] = system: Streptococcus pneumoniae; test: Experimental bacterial infection in mice, ED50; type: in vivo; settings: two doses, dose protecting 50% of animals; for ED50: Streptococcus pneumoniae, po, read-out: Oral ED50
Protocol: as §2

[15] = system: Streptococcus pyogenes; test: Experimental bacterial infection in mice, ED50; type: in vivo; settings: two doses, dose protecting 50% of animals; for ED50: Streptococcus pyogenes, po, read-out: Oral ED50
Protocol: as §2

[16] = system: Klebsiella pneumoniae X68; test: MIC, standard agar-dilution assay; type: cell-based
[17] = Streptococcus sp. group D X66, read-out: MIC

Row | Molecule | MIC ([1]; read-out: MIC) [µg/mL] | MIC ([2]; read-out: MIC) [µg/mL] | MIC ([3]; read-out: MIC) [µg/mL] | MIC [4] [µg/mL] | MIC ([5]; read-out: MIC) [µg/mL] | MIC ([6]; read-out: MIC) [µg/mL] | MIC [7, 17] [µg/mL] | MIC ([8]; read-out: MIC) [µg/mL] | MIC ([9]; read-out: MIC) [µg/mL] | MIC ([10]; read-out: MIC) [µg/mL] | MIC ([11]; read-out: MIC) [µg/mL] | MIC ([12]; read-out: MIC) [µg/mL] | ED50 [13] [mg/kg] | ED50 [14] [mg/kg] | ED50 [15] [mg/kg] | MIC ([16]; read-out: MIC) [µg/mL] | also measured
1 | CC[C@H]1OC(=O)[C@H](C)[C@@H](O[C@H]2C[C@@](C)(OC)[C@@H](O)[C@H](C)O2)[C@H](C)[C@@H](O[C@@H]2O[C@H](C)C[C@H](N(C)C)[C@H]2O)[C@](C)(O)C[C@@H](C)[C@H](NCC2CCCCCCC2)[C@H](C)[C@@H](O)[C@]1(C)O [Compound 16, 9-Deoxo-9-[(cyclooctylmethyl)amino]erythromycin] | 0.5 (≈ 0.582 µM) | 64 (≈ 74.5 µM) | 64 (≈ 74.5 µM) | 0.06 (≈ 0.0698 µM) | 0.25 (≈ 0.291 µM) | < 0.008 | < 0.008 | 1 (≈ 1.16 µM) | 1 (≈ 1.16 µM) | 1 (≈ 1.16 µM) | 64 (≈ 74.5 µM) |  |  |  |  |  | 
2 | CCCCCCCCCCN[C@@H]1[C@H](C)[C@@H](O)[C@](C)(O)[C@@H](CC)OC(=O)[C@H](C)[C@@H](O[C@H]2C[C@@](C)(OC)[C@@H](O)[C@H](C)O2)[C@H](C)[C@@H](O[C@@H]2O[C@H](C)C[C@H](N(C)C)[C@H]2O)[C@](C)(O)C[C@H]1C [Compound 9, 9-Deoxo-9-(n-decylamino)erythromycin] | 1 (≈ 1.14 µM) | 4 (≈ 4.57 µM) | 8 (≈ 9.14 µM) | 0.5 (≈ 0.571 µM) | 1 (≈ 1.14 µM) | 0.015 (≈ 0.0171 µM) | 0.25 (≈ 0.286 µM) | 2 (≈ 2.29 µM) | 2 (≈ 2.29 µM) | 1 (≈ 1.14 µM) |  | 0.015 (≈ 0.0171 µM) | > 50 | > 50 | > 50 |  | 
3 | CC[C@H]1OC(=O)[C@H](C)[C@@H](O[C@H]2C[C@@](C)(OC)[C@@H](O)[C@H](C)O2)[C@H](C)[C@@H](O[C@@H]2O[C@H](C)C[C@H](N(C)C)[C@H]2O)[C@](C)(O)C[C@@H](C)[C@H](NCCC(C)CCCC(C)(C)OC)[C@H](C)[C@@H](O)[C@]1(C)O (some centres unmarked) [Compound 24, 9-Deoxo-9-[(7-methoxy-3,7-dimethyloctyl)amino]erythromycin] | 0.5 (≈ 0.552 µM) | 64 (≈ 70.7 µM) | 64 (≈ 70.7 µM) | 0.25 (≈ 0.276 µM) | 0.25 (≈ 0.276 µM) | 0.015 (≈ 0.0166 µM) | 0.03 (≈ 0.0331 µM) | 2 (≈ 2.21 µM) | 1 (≈ 1.1 µM) | 2 (≈ 2.21 µM) | 128 (≈ 141 µM) |  | > 45.6 | 23.6 | 25 |  | 
4 | CCCCCCCCN[C@@H]1[C@H](C)[C@@H](O)[C@](C)(O)[C@@H](CC)OC(=O)[C@H](C)[C@@H](O[C@H]2C[C@@](C)(OC)[C@@H](O)[C@H](C)O2)[C@H](C)[C@@H](O[C@@H]2O[C@H](C)C[C@H](N(C)C)[C@H]2O)[C@](C)(O)C[C@H]1C [Compound 8, 9-Deoxo-9-(n-octylamino)erythromcin] | 0.5 (≈ 0.59 µM) | 8 (≈ 9.44 µM) | 8 (≈ 9.44 µM) | 0.25 (≈ 0.295 µM) | 0.25 (≈ 0.295 µM) | 0.015 (≈ 0.0177 µM) | 0.06 (≈ 0.0708 µM) | 1 (≈ 1.18 µM) | 1 (≈ 1.18 µM) | 1 (≈ 1.18 µM) |  | 0.015 (≈ 0.0177 µM) | > 50 | 46.1 | 23.4 |  | Oral ED50 ([14]; oral): > 50 mg/kg; Oral ED50 ([15]; oral): 38.3 mg/kg
5 | CC[C@H]1OC(=O)[C@H](C)[C@@H](O[C@H]2C[C@@](C)(OC)[C@@H](O)[C@H](C)O2)[C@H](C)[C@@H](O[C@@H]2O[C@H](C)C[C@H](N(C)C)[C@H]2O)[C@](C)(O)C[C@@H](C)[C@H](NC)[C@H](C)[C@@H](O)[C@]1(C)O [Compound 1, 9-Deoxo-9-(methylamino)erythromycin] | 1 (≈ 1.34 µM) | 64 (≈ 85.4 µM) | 64 (≈ 85.4 µM) | 0.125 (≈ 0.167 µM) | 0.25 (≈ 0.334 µM) | 0.06 (≈ 0.0801 µM) |  | 1 (≈ 1.34 µM) | 0.5 (≈ 0.668 µM) | 1 (≈ 1.34 µM) | 32 (≈ 42.7 µM) |  | 43.8 | 35.4 | 21 | 64 (≈ 85.4 µM) | MIC ([7]; Streptococcus): 0.125 µg/mL (≈ 0.167 µM)
6 | CC[C@H]1OC(=O)[C@H](C)[C@@H](O[C@H]2C[C@@](C)(OC)[C@@H](O)[C@H](C)O2)[C@H](C)[C@@H](O[C@@H]2O[C@H](C)C[C@H](N(C)C)[C@H]2O)[C@](C)(O)C[C@@H](C)[C@H](NCCOCCOC)[C@H](C)[C@@H](O)[C@]1(C)O [Compound 25, 9-Deoxo-9-[[2-(2-methoxyethoxy)ethyl]amino]erythromycin] | 1 (≈ 1.19 µM) |  |  | 8 (≈ 9.56 µM) | 1 (≈ 1.19 µM) | 0.125 (≈ 0.149 µM) | 0.25 (≈ 0.299 µM) | 8 (≈ 9.56 µM) | 2 (≈ 2.39 µM) | 4 (≈ 4.78 µM) | 64 (≈ 76.5 µM) | 0.015 (≈ 0.0179 µM) | 23.3 | 21.8 | 27.1 | 128 (≈ 153 µM) | 
7 | 9-Deoxo-9-[(5-dimethylamino-2-pentyl)amino]-9,11-1N,O)-cyclic. Methylene Adduct of Erythromycin [Compound 63] |  |  |  | 8 |  |  |  |  |  |  |  |  |  |  |  |  | MIC [1]: 8 µg/mL; MIC [2]: – (– = >128); MIC [3]: – (– = >128); MIC [5]: 8 µg/mL; MIC [6]: 0.5 µg/mL; MIC [12]: 0.5 µg/mL; MIC ([7]; Streptococcus sp. group D X66): 2 µg/mL; MIC [8]: 32 µg/mL; MIC [9]: 8 µg/mL; MIC [10]: 8 µg/mL; MIC [11]: 32 µg/mL; MIC [16]: 128 µg/mL
8 | CCCCN[C@@H]1[C@H](C)[C@@H](O)[C@](C)(O)[C@@H](CC)OC(=O)[C@H](C)[C@@H](O[C@H]2C[C@@](C)(OC)[C@@H](O)[C@H](C)O2)[C@H](C)[C@@H](O[C@@H]2O[C@H](C)C[C@H](N(C)C)[C@H]2O)[C@](C)(O)C[C@H]1C [Compound 4, 9-Deoxo-9-(n-butylamino)erythromycin] | 0.25 (≈ 0.316 µM) |  |  | 1 (≈ 1.26 µM) | 0.25 (≈ 0.316 µM) | 0.06 (≈ 0.0758 µM) | 0.125 (≈ 0.158 µM) | 1 (≈ 1.26 µM) | 1 (≈ 1.26 µM) | 1 (≈ 1.26 µM) | 64 (≈ 80.9 µM) | 0.015 (≈ 0.019 µM) | 14.7 | 12.5 | 12.5 | 128 (≈ 162 µM) | 
9 | CCCCCCCCCCCCN[C@@H]1[C@H](C)[C@@H](O)[C@](C)(O)[C@@H](CC)OC(=O)[C@H](C)[C@@H](O[C@H]2C[C@@](C)(OC)[C@@H](O)[C@H](C)O2)[C@H](C)[C@@H](O[C@@H]2O[C@H](C)C[C@H](N(C)C)[C@H]2O)[C@](C)(O)C[C@H]1C [Compound 10, 9-Deoxo-9-(n-dodecylamino)erythromycin] | 4 (≈ 4.43 µM) | 8 (≈ 8.86 µM) | 8 (≈ 8.86 µM) | 2 (≈ 2.21 µM) | 4 (≈ 4.43 µM) | 0.5 (≈ 0.554 µM) | 1 (≈ 1.11 µM) | 8 (≈ 8.86 µM) | 8 (≈ 8.86 µM) | 4 (≈ 4.43 µM) |  | 0.06 (≈ 0.0664 µM) | > 45 | > 50 | > 50 |  | 
